Blank lines part the entries; values can stand above or below the compound they belong to. The source made the active and inactive calls.
Experiments:
[1] = target: Glucose-6-phosphate 1-dehydrogenase (Homo sapiens, UniProt P11413); assay: inhibition of Homo sapiens G6PD, dose series – biochemical, fluorescence, selectivity assay for P. falciparum G6PD inhibitor project, dose response (AID 504792); format: functional
[2] = target: T1, Coagulation factor XII (Homo sapiens, UniProt P00748); format: functional;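 note: activated factor XIIa alpha cleaving a fluorogenic AMC peptide substrate; inhibitor potency from loss of enzyme activity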
T1 sequence (P00748 whole entry): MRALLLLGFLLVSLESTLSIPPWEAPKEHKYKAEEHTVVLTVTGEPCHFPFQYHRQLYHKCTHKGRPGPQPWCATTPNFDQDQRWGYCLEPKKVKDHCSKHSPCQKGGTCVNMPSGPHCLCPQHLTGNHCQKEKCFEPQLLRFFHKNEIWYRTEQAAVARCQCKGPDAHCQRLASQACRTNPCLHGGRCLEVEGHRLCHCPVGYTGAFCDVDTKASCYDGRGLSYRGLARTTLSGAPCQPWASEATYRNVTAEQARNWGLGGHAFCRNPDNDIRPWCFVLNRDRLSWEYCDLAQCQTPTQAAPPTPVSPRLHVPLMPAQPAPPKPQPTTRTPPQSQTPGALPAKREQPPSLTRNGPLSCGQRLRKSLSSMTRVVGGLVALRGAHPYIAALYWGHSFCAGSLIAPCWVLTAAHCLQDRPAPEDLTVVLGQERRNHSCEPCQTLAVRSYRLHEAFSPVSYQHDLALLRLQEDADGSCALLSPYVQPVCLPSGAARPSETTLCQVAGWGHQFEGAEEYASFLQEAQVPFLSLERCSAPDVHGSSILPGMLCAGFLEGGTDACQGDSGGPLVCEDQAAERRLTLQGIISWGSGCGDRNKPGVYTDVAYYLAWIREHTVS

[3] = target: Beta-galactosidase (Escherichia coli, UniProt Q8VNN2); assay: PubChem AID 485352; format: functional
[4] = target: T2, Type-1 angiotensin II receptor (Homo sapiens, UniProt P30556); assay: antagonism of angiotensin II type 1 receptor – cell-based, uHTS hits, selectivity assay for APJ receptor antagonist project, dose response (AID 463214); format: functional;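 note: antagonist potency against angiotensin II stimulated AT1 response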
T2 sequence (P30556 whole entry): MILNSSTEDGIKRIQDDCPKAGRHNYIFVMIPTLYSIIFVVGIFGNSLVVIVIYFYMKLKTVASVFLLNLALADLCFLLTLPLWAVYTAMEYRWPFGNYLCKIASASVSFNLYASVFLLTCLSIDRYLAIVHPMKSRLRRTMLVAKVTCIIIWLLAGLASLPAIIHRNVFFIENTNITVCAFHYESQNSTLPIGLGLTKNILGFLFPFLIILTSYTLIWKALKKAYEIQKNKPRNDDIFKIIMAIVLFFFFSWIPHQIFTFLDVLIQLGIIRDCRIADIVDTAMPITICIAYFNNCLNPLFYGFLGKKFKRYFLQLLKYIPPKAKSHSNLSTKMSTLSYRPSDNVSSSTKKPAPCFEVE

[5] = target: T3, Cysteine protease ATG4B (Homo sapiens, UniProt Q9Y4P1); format: functional;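 note: Fluorescence-based dose-response confirmation assay measuring inhibition of ATG4B activity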
T3 sequence (Q9Y4P1 whole entry): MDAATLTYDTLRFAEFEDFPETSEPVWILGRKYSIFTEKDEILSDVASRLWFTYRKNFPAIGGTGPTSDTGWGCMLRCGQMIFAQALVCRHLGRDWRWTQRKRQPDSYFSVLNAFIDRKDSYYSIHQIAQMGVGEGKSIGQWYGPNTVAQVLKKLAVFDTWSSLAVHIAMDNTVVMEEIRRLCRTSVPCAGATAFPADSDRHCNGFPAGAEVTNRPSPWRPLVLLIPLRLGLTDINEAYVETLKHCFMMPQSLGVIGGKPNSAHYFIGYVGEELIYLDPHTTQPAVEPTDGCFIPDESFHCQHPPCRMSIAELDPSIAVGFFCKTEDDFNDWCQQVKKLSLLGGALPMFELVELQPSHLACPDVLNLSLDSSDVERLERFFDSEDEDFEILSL

[6] = target: Phospholipase A2 (Homo sapiens, UniProt P04054); format: functional;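 note: confirmatory dose-response counterscreen on phospholipase A2, testing hits that came from an ultra-high-throughput screen for ATG4B inhibitors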
[7] = cells; format: functional, cell-based
[8] = cells; format: functional, cell-based; remark: listed apart in the source
[9] = loss of viability in HepG2 cells – cell-based, CellTiter-Glo, cherry-picked, cytotoxicity control for Shn3 inhibitor project, dose response (AID 624134); format: functional
[10] = non-specific 3'UTR reporter inhibition in Clone20-Shn3RL – cell-based, Renilla luciferase, cherry-picked, counter-screen for Shn3 inhibitor project, dose response (AID 624133); format: functional
[11] = HIV-1 AD8 envelope cell-cell fusion blockers – cherry-pick, dose response (AID 652062); format: functional, cell-based;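 note: luciferase signal from cell-cell fusion driven by HIV-1 clade B AD8 Env; potency is for inhibitors of fusion seen as a drop in luminescence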
[12] = target: Protein Wnt-3a (Mus musculus, UniProt P27467); assay: antagonism of Wnt3a pathway luciferase reporter – Wnt-LIGHT cells, luminescence, selectivity assay for Gli-SUFU antagonist project, dose response (AID 651570); format: functional; settings: read-out: IC50_Mean;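 note: Wnt-LIGHT reporter cells stimulated with conditioned medium from Wnt3a-producing cells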
[13] = reduction of Shn3 3'UTR-driven luciferase in osteoblasts – cell-based, Clone20 osteoblasts, firefly luciferase, cherry-picked, dose response (AID 624132); format: functional;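 note: firefly luciferase luminescence from reporter carrying the Shn3 3'UTR in osteoblasts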
[14] = target: Genome polyprotein (dengue virus type 2, UniProt P29990); assay: flavivirus cap methylation enzyme inhibition – biochemical, confirmation dose response, primary screen (AID 588689); format: functional
[15] = tested on: INS1; assay: INS-1E survival protection against cytokine death – cell-based, luminescence, retest, dose response (AID 449756); format: functional; settings: Rattus norvegicus;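 note: cell death triggered by IL-1 beta plus TNF-alpha plus IFN-gamma mixture; protective hits raise ATP signal compared with cytokine alone wells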
[16] = target: NAD-dependent protein deacylase sirtuin-5, mitochondrial (Homo sapiens, UniProt Q9NXA8); assay: sirtuin-5 deacylation blockers, concentration series – biochemical, fluorescence imaging, cherry-pick, set 5, dose response (AID 720591);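 note: desuccinylation of succinyl peptide AMC substrate read as fluorescence after trypsin release; potency of inhibitors that lower fluorescence and may act on trypsin instead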
[17] = target: T4, Rac GTPase-activating protein 1 (Homo sapiens, UniProt Q9H0H5); assay: blockers of MgcRacGAP-driven Rac1 GTP hydrolysis – biochemical, ADP Hunter fluorescence, primary and confirmatory, confirmation (AID 624330); format: functional
T4 sequence (Q9H0H5 whole entry): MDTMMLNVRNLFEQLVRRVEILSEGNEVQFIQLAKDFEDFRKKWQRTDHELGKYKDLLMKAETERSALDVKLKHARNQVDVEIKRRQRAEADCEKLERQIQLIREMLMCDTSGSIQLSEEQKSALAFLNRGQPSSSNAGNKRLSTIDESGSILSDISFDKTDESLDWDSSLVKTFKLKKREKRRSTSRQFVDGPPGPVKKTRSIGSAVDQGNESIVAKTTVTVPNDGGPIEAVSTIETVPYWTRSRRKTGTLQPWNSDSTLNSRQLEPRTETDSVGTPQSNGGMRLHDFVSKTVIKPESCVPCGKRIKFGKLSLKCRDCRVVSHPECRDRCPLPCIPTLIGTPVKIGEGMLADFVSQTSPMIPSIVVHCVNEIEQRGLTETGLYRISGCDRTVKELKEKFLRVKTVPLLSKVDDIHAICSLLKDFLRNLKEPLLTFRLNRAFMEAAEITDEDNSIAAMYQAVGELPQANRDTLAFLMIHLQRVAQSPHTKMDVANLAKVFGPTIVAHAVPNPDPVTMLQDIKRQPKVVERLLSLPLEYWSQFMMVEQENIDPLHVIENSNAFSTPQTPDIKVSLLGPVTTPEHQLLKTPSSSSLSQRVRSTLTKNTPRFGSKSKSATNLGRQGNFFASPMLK

[18] = target: G-protein coupled receptor 55 (Homo sapiens, UniProt Q9Y2T6); assay: inhibition of LPI-stimulated GPR55 beta-arrestin translocation – imaging, U2OS, beta-arrestin-GFP, LPI agonist, primary screen (AID 2013); format: functional;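 note: antagonist potency measured as reduced agonist-driven arrestin aggregation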
G-protein coupled receptor 55, sequence (Q9Y2T6 whole entry): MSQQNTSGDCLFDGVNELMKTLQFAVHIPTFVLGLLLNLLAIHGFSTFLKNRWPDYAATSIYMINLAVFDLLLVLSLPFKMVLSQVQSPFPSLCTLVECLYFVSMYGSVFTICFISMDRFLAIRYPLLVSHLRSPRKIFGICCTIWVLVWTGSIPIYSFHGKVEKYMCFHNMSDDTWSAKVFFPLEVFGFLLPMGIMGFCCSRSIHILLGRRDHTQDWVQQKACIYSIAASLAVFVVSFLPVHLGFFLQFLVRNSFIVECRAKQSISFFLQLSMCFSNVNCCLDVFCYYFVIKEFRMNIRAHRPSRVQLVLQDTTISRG

Genome polyprotein, sequence (P29990 2492-3391 limits assumed): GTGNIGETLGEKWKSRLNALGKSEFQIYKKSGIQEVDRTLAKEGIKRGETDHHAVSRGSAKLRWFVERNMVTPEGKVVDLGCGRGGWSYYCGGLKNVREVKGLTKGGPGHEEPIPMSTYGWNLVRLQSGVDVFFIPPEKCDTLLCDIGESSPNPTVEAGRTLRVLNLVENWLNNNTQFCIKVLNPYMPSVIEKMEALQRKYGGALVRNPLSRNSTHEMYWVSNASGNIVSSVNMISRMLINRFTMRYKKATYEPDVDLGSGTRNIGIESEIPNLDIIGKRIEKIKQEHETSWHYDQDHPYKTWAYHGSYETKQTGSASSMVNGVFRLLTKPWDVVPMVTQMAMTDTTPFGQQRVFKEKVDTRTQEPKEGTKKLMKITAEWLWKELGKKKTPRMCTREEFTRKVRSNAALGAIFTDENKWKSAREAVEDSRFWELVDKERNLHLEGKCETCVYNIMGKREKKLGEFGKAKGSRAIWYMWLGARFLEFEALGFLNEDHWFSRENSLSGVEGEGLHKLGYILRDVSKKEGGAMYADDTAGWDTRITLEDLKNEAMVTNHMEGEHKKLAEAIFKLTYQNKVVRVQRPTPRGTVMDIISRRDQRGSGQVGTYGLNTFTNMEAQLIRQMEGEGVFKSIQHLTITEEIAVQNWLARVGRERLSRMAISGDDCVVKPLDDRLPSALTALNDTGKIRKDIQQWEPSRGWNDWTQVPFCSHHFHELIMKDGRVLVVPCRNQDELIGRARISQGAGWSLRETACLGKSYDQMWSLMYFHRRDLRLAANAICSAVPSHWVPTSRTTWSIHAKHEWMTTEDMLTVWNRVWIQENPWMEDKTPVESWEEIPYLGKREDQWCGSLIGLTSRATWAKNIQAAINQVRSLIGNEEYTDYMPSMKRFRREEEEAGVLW
Beta-galactosidase, sequence (Q8VNN2 whole entry): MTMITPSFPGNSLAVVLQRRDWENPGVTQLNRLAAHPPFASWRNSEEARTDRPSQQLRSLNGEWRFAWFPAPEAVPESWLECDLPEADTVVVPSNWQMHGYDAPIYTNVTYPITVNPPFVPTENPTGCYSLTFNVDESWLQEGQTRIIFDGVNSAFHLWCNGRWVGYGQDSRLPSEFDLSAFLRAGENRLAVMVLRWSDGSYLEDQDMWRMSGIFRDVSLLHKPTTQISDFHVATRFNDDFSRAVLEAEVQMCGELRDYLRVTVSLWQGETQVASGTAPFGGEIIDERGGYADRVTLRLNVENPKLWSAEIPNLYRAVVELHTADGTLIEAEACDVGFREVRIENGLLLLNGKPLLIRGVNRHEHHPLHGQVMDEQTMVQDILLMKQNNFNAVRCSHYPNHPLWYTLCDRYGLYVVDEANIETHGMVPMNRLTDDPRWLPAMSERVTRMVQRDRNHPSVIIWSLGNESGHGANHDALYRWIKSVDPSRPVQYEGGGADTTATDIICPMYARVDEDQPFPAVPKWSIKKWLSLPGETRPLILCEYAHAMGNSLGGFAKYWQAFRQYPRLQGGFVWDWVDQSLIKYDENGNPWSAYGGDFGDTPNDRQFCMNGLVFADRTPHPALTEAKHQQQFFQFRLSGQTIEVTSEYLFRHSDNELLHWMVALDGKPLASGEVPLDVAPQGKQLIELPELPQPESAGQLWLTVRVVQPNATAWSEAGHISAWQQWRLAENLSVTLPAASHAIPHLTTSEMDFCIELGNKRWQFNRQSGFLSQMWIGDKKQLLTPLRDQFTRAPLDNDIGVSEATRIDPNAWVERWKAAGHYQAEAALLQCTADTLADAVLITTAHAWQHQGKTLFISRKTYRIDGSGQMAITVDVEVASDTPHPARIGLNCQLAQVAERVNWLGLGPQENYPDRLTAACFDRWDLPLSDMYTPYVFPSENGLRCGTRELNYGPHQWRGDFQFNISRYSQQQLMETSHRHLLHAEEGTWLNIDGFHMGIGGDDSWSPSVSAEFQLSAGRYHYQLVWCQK
Protein Wnt-3a, sequence (P27467 whole entry): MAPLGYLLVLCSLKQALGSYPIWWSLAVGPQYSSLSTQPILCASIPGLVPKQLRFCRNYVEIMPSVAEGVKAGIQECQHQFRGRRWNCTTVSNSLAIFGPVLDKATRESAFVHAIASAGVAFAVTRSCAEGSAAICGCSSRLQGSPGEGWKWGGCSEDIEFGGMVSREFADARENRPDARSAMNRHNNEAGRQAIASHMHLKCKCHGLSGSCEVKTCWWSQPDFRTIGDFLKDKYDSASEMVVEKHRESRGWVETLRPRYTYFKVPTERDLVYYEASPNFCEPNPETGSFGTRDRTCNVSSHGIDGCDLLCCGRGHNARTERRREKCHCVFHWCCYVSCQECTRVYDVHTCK
Glucose-6-phosphate 1-dehydrogenase, sequence (P11413 whole entry): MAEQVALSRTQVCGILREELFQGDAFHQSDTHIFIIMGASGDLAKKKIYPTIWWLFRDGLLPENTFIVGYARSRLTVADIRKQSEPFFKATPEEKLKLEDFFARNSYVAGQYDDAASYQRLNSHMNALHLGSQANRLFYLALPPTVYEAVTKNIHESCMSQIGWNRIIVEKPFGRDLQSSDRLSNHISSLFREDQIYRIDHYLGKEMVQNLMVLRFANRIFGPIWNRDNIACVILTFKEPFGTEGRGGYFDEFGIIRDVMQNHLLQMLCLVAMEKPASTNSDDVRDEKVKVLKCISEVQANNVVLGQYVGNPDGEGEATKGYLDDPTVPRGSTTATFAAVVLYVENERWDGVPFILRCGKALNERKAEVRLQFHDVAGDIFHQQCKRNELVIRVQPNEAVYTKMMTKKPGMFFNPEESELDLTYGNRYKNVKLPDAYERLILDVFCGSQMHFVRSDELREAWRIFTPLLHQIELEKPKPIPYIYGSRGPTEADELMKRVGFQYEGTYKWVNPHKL
NAD-dependent protein deacylase sirtuin-5, mitochondrial, sequence (Q9NXA8 whole entry): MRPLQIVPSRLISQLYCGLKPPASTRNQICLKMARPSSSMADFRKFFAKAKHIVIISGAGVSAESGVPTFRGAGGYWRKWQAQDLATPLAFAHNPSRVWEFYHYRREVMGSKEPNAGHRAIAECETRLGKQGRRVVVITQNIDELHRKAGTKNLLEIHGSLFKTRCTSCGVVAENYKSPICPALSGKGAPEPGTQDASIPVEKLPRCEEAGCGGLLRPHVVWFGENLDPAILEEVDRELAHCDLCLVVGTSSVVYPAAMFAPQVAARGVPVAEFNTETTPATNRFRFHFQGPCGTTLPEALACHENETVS
Phospholipase A2, sequence (P04054 whole entry): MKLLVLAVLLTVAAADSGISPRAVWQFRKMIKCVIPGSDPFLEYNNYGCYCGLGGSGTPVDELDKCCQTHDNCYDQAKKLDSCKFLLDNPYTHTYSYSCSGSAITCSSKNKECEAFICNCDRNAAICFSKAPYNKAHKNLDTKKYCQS

IC50 [2]: > 50 µM (inactive)
Compound: CN(C)/C=C/c1c(C#N)c(=O)ncn1Cc1ccccc1

EC50 [3]: > 40 µM (inactive) | IC50 [4]: 35.3 µM (not active)
Compound: CC1=NN(C(N)=S)C(=O)C1N=Nc1ccc([N+](=O)[O-])cc1 (centres undefined)

IC50 [5]: 25.4 µM (inactive) | IC50 [6]: 12.2 µM (active)
Compound: FC(F)(F)Oc1ccc(NC(S)=NCc2ccccc2)cc1

AC50 [16]: 21.6 µM (active) | IC50 [17]: 42.4 µM (active)
Compound: COc1ccccc1-c1c[nH]nc1-c1ccc(O)cc1O

IC50 [18]: 0.509 µM (active)
Compound: CN(C)c1ccnc(N(Cc2ccccc2)Cc2ccccc2)c1C#N

Further lines, the compound ahead of its results:

Compound: Cc1ccccc1-n1c(-c2ccc3ccccc3n2)n[nH]c1=S
IC50 [1]: > 80 µM (inactive)

Compound: Oc1nc(Nc2ccccc2)nc(N2CCCC2)n1
IC50 [7]: > 29.9 µM (inactive) | EC50 [8]: > 29.9 µM (inactive)

Compound: O=C(c1cccc(S(=O)(=O)N2CCN(c3ccccc3)CC2)c1)N1CCCC(C(F)(F)F)C1 (centres undefined)
AC50 [9]: 37.3 µM (active) | AC50 [10]: 0.475 µM (active) | AC50 [11]: 6.01 µM (active) | IC50 [12]: 41.8 µM (inactive) | AC50 [13]: 2.68 µM (active)

Compound: O=C(O)c1ccc(/C=C2\SC(=S)N(Nc3ccccc3)C2=O)cc1
IC50 [14]: 58 µM (active) | IC50 [2]: > 50 µM (inactive) | AC50 [15]: 3.85 µM (active)

Reference: ChEMBL document CHEMBL1201862, “PubChem BioAssay data set” (2004)
